Like-named read-outs stand apart in the source and are kept apart here.
Test system: A375 Sensitive cells
Assay: Viability test, trypan blue exclusion, A375 Sensitive cells
Format: cell-based, human
Settings: Homo sapiens, A-375, viable cells as percentage of DMSO control
Outline: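 A375 (B-Raf, CDKN2A, PTEN mutant) cells were exposed to compounds at 5.0 or 10 μM for 24 or 48 hr; CRO15 also at 0.5–50 μM for 48 hr or 5 μM for 2–48 hr; DMSO control. Viable cells were counted by trypan blue exclusion, as % of control. Three experiments in triplicate.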

[1] = 24 h, read-out: Viab A375 5 μM/ 24 h
[2] = 48 h, read-out: Viab A375 5 μM/ 48 h
[3] = 24 h, read-out: Viab A375 10 μM/ 24 h
[4] = 48 h, read-out: Viab A375 10 μM/ 48 h

N=c1nc(C(Cl)(Cl)Cl)nc(Nc2ccccc2O)[nH]1 [MTF 373, 2-((4-amino-6-(trichloromethyl)-1,3,5-triazin-2-yl)amino)phenol]
viability at 5 µM [1]: 34.3% | viability at 5 µM [2]: 22.5% | viability at 10 µM [3]: 38.6% | viability at 10 µM [4]: 22.8%

N=c1nc(C(Cl)(Cl)Cl)nc(Nc2cc(Cl)ccc2O)[nH]1 [MTF 374, 2-((4-amino-6-(trichloromethyl)-1,3,5-triazin-2-yl)amino)-4-chlorophenol]
viability at 5 µM [1]: 47% | viability at 5 µM [2]: 69.2% | viability at 10 µM [3]: 24% | viability at 10 µM [4]: 27.7%

N=c1nc(C(Cl)(Cl)Cl)nc(Nc2ccc(Cl)cc2O)[nH]1 [MTF 375]
viability at 5 µM [1]: 47.2% | viability at 5 µM [2]: 29.5% | viability at 10 µM [3]: 30.9% | viability at 10 µM [4]: 15.5%

Nc1nc(Nc2ccc([N+](=O)[O-])cc2O)nc(C(Cl)(Cl)Cl)n1 [MTF 376, 2-((4-amino-6-(trichloromethyl)-1,3,5-triazin-2-yl)amino)-5-nitrophenol]
viability at 5 µM [1]: 44.7% | viability at 5 µM [2]: 38.9% | viability at 10 µM [3]: 24.3% | viability at 10 µM [4]: 20.9%

Nc1nc(Nc2cc([N+](=O)[O-])ccc2O)nc(C(Cl)(Cl)Cl)n1 [MTF 377, 2-((4-amino-6-(trichloromethyl)-1,3,5-triazin-2-yl)amino)-4-nitrophenol]
viability at 5 µM [1]: 27.3% | viability at 5 µM [2]: 34.4% | viability at 10 µM [3]: 22.7% | viability at 10 µM [4]: 33.5%

N=C(NC(=N)c1ccc(Cl)nc1)Nc1nc2ccccc2s1 [MTF 379, N—(N-(benzo[d]thiazol-2-yl)carbamimidoyl)-6-chloronicotinimidamide]
viability at 5 µM [1]: 148% | viability at 5 µM [2]: 76.9% | viability at 10 µM [3]: 95.7% | viability at 10 µM [4]: 86.2%

N=C(NC(=N)c1ccnc(Cl)c1)Nc1nc2ccccc2s1 [MTF 380, N—(N-(benzo[d]thiazol-2-yl)carbamimidoyl)-2-chloroisonicotinimidamide]
viability at 5 µM [1]: 47.3% | viability at 5 µM [2]: 4.9% | viability at 10 µM [3]: 36.2% | viability at 10 µM [4]: 2.3%

N=C(NC(=N)c1cccs1)Nc1nc2ccccc2s1 [MTF 381, N—(N-(benzo[d]thiazol-2-yl)carbamimidoyl)thiophene-2-carboximidamide]
viability at 5 µM [1]: 88.3% | viability at 5 µM [2]: 61.6% | viability at 10 µM [3]: 90.6% | viability at 10 µM [4]: 61.4%

COc1cc(C(=N)NC(=N)Nc2nc3ccccc3s2)cc(OC)c1OC [MTF 382, N—(N-(benzo[d]thiazol-2-yl)carbamimidoyl)-3,4,5-trimethoxybenzimidamide]
viability at 5 µM [1]: 14.7% | viability at 5 µM [2]: 1.8% | viability at 10 µM [3]: 17.4% | viability at 10 µM [4]: 4.5%

N=C(NC(=N)c1ccc2c(c1)OCO2)Nc1nc2ccccc2s1 [MTF 383, N—(N-(benzo[d]thiazol-2-yl)carbamimidoyl)benzo[d][1,3]dioxole-5-carboximidamide]
viability at 5 µM [1]: 43.1% | viability at 5 µM [2]: 40.6% | viability at 10 µM [3]: 41.6% | viability at 10 µM [4]: 7.1%

N=C(NC(=N)c1ccc2ccccc2c1)Nc1nc2ccccc2s1 [MTF 384, N—(N-(benzo[d]thiazol-2-yl)carbamimidoyl)-2-naphthimidamide]
viability at 5 µM [1]: 76.1% | viability at 5 µM [2]: 119% | viability at 10 µM [3]: 93.3% | viability at 10 µM [4]: 72.2%

N=C(NC(=N)c1ccc(C(F)(F)F)cc1)Nc1nc2ccccc2s1 [MTF 385, N—(N-(benzo[d]thiazol-2-yl)carbamimidoyl)-4-(trifluoromethyl)benzimidamide]
viability at 5 µM [1]: 52.3% | viability at 5 µM [2]: 68.1% | viability at 10 µM [3]: 86.6% | viability at 10 µM [4]: 81.5%

N=C(NC(=N)c1ccnc(Br)c1)Nc1nc2ccccc2s1 [MTF 386, N—(N-(benzo[d]thiazol-2-yl)carbamimidoyl)-2-bromoisonicotinimidamide]
viability at 5 µM [1]: 28.9% | viability at 5 µM [2]: 6.6% | viability at 10 µM [3]: 18.1% | viability at 10 µM [4]: 3.7%

N=C(NC(=N)c1cscc1Br)Nc1nc2ccccc2s1 [MTF 387, N—(N-(benzo[d]thiazol-2-yl)carbamimidoyl)-4-bromothiophene-3-carboximidamide]
viability at 5 µM [1]: 70.1% | viability at 5 µM [2]: 56.2% | viability at 10 µM [3]: 67.8% | viability at 10 µM [4]: 55.6%

CC1(C)C=Cc2cc(C(=N)NC(=N)Nc3nc4ccccc4s3)ccc2O1 [MTF 388, N—(N-(benzo[d]thiazol-2-yl)carbamimidoyl)-2,2-dimethyl-2H-chromene-6-carboximidamide]
viability at 5 µM [1]: 61.4% | viability at 5 µM [2]: 65.1% | viability at 10 µM [3]: 55.7% | viability at 10 µM [4]: 18.4%

N=C(NC(=N)c1ncc(Cl)cc1Cl)Nc1nc2ccccc2s1 [MTF 389, N—(N-(benzo[d]thiazol-2-yl)carbamimidoyl)-3,5-dichloropicolinimidamide]
viability at 5 µM [1]: 74.6% | viability at 5 µM [2]: 85.6% | viability at 10 µM [3]: 75.8% | viability at 10 µM [4]: 76.4%

Nc1nc(Nc2ccccc2SSc2ccccc2Nc2nc(N)nc(-c3ccc(C(F)(F)F)cc3)n2)nc(-c2ccc(C(F)(F)F)cc2)n1 [MTF 394, N2,N2′-(disulfanediylbis(2,1-phenylene))bis(6-(4-(trifluoromethyl)phenyl)-1,3,5-triazine-2,4-diamine)]
viability at 5 µM [1]: 13.1% | viability at 5 µM [2]: 4.4% | viability at 10 µM [3]: 4.5% | viability at 10 µM [4]: 1.1%

Nc1nc(Nc2ccccc2SSc2ccccc2Nc2nc(N)nc(-c3cccs3)n2)nc(-c2cccs2)n1 [MTF 396, N2,N2′-(disulfanediylbis(2,1-phenylene))bis(6-(thiophen-2-yl)-1,3,5-triazine-2,4-diamine)]
viability at 5 µM [1]: 19.2% | viability at 5 µM [2]: 12.1% | viability at 10 µM [3]: 7.5% | viability at 10 µM [4]: 0%

Nc1nc(Nc2ccccc2SSc2ccccc2Nc2nc(N)nc(-c3cscc3Br)n2)nc(-c2cscc2Br)n1 [MTF 397, N2,N2′-(disulfanediylbis(2,1-phenylene))bis(6-(4-bromothiophen-3-yl)-1,3,5-triazine-2,4-diamine)]
viability at 5 µM [1]: 35.4% | viability at 5 µM [2]: 33.7% | viability at 10 µM [3]: 13.4% | viability at 10 µM [4]: 7.3%

N=C(NC(=N)c1ccc([N+](=O)[O-])cc1)Nc1nc2ccccc2s1 [MTF 398, N—(N-(benzo[d]thiazol-2-yl)carbamimidoyl)-4-nitrobenzimidamide]
viability at 5 µM [1]: 91.9% | viability at 5 µM [2]: 132% | viability at 10 µM [3]: 91% | viability at 10 µM [4]: 109%

Nc1nc(Nc2ccccc2SSc2ccccc2Nc2nc(N)nc(-c3ccc4ccccc4c3)n2)nc(-c2ccc3ccccc3c2)n1 [MTF 443, N2,N2′-(disulfanediylbis(2,1-phenylene))bis(6-(naphthalen-2-yl)-1,3,5-triazine-2,4-diamine)]
viability at 5 µM [1]: 42.3% | viability at 5 µM [2]: 10.2% | viability at 10 µM [3]: 13.8% | viability at 10 µM [4]: 7.8%

Nc1nc(Nc2ccccc2SSc2ccccc2Nc2nc(N)nc(-c3cccc([N+](=O)[O-])c3)n2)nc(-c2cccc([N+](=O)[O-])c2)n1 [MTF 445, N2,N2′-(disulfanediylbis(2,1-phenylene))bis(6-(3-nitrophenyl)-1,3,5-triazine-2,4-diamine)]
viability at 5 µM [1]: 62.6% | viability at 5 µM [2]: 35.2% | viability at 10 µM [3]: 72.4% | viability at 10 µM [4]: 16.3%

COc1cc(-c2nc(N)nc(Nc3ccccc3SSc3ccccc3Nc3nc(N)nc(-c4cc(OC)c(OC)c(OC)c4)n3)n2)cc(OC)c1OC [MTF 446, N2,N2′-(disulfanediylbis(2,1-phenylene))bis(6-(3,4,5-trimethoxyphenyl)-1,3,5-triazine-2,4-diamine)]
viability at 5 µM [1]: 62.6% | viability at 5 µM [2]: 13% | viability at 10 µM [3]: 16.3% | viability at 10 µM [4]: 1.8%

Nc1nc(Nc2ccccc2SSc2ccccc2Nc2nc(N)nc(-c3ccc4c(c3)OCO4)n2)nc(-c2ccc3c(c2)OCO3)n1 [MTF 449, N2,N2′-(disulfanediylbis(2,1-phenylene))bis(6-(benzo[d][1,3]dioxol-5-yl)-1,3,5-triazine-2,4-diamine)]
viability at 5 µM [1]: 74.2% | viability at 5 µM [2]: 67.8% | viability at 10 µM [3]: 59.1% | viability at 10 µM [4]: 53%

Nc1nc(Nc2ccccc2SSc2ccccc2Nc2nc(N)nc(-c3ccccc3Cl)n2)nc(-c2ccccc2Cl)n1 [MTF 450, N2,N2′-(disulfanediylbis(2,1-phenylene))bis(6-(2-chlorophenyl)-1,3,5-triazine-2,4-diamine)]
viability at 5 µM [1]: 38.6% | viability at 5 µM [2]: 54.8% | viability at 10 µM [3]: 38.3% | viability at 10 µM [4]: 49.9%

Cc1ccc(-c2nc(N)nc(Nc3ccccc3SSc3ccccc3Nc3nc(N)nc(-c4ccc(C)cc4)n3)n2)cc1 [MTF 451, N2,N2′-(disulfanediylbis(2,1-phenylene))bis(6-(p-tolyl)-1,3,5-triazine-2,4-diamine)]
viability at 5 µM [1]: 26.1% | viability at 5 µM [2]: 23.9% | viability at 10 µM [3]: 10.6% | viability at 10 µM [4]: 12.5%

Nc1nc(Nc2ccccc2SSc2ccccc2Nc2nc(N)nc(-c3ccccc3F)n2)nc(-c2ccccc2F)n1 [MTF 452, N2,N2′-(disulfanediylbis(2,1-phenylene))bis(6-(2-fluorophenyl)-1,3,5-triazine-2,4-diamine)]
viability at 5 µM [1]: 43.6% | viability at 5 µM [2]: 60.5% | viability at 10 µM [3]: 22.3% | viability at 10 µM [4]: 40.3%

Nc1nc(Nc2ccccc2SSc2ccccc2Nc2nc(N)nc(-c3c(Cl)cccc3Cl)n2)nc(-c2c(Cl)cccc2Cl)n1 [MTF 455, N2,N2′-(disulfanediylbis(2,1-phenylene))bis(6-(2,6-dichlorophenyl)-1,3,5-triazine-2,4-diamine)]
viability at 5 µM [1]: 89% | viability at 5 µM [2]: 108% | viability at 10 µM [3]: 32.3% | viability at 10 µM [4]: 69.5%

Reference: US11440906B2, “Biguanide derivatives and their rearrangement products for use in the treatment of cancer” (CENTRE NATIONAL DE LA RECHERCHE SCIENTIFIQUE, priority 2017, dated 2022)
